Measurements: patent US9315543B2, “Tyrosine based linkers for the releasable connection of peptides” (Bayer Intellectual Property GmbH, priority 2011, dated 2016)

Assay: Cleavage kinetics (stability) of tyrosine based linker derivatives in buffer at pH 4 and pH 7.4, HPLC
Type: physicochemical
Conditions: room temperature; for % cleaved pH 4, 0 h / % cleaved pH 4, 24 h: pH 4 solution/acetonitrile; for % cleaved pH 4, 0 h / % cleaved pH 4, 24 h / % cleaved pH 7.4, 0 h / % cleaved pH 7.4, 6 h / % cleaved pH 7.4, 24 h: HPLC peak area; for % cleaved pH 7.4, 0 h / % cleaved pH 7.4, 6 h / % cleaved pH 7.4, 24 h: pH 7.4 buffer/acetonitrile; for cleavage kinetic (in words): summary of Table 1, pH 4 and pH 7.4, up to 24 h
Text: To illustrate the different kinetics of different linkers, simple derivatives of the tyrosine based molecule were synthesized and the cleavage at different time points in buffer at pH 4 and pH 7.4 were monitored. Based on the exact composition of the tyrosine based linker structure the formation of the cyclic urea with concomittant release of the free tyrosine OH group has different cleavage kinetics. These can be easily measured in vitro and used as predictors for the in vivo kinetics.
For the kinetic studies with regard to the stability of the different linkers 0.3 mg of the dry test compound are dissolved in 0.5 ml acetonitrile. For a better dilution the sample is sonified for about 10 seconds. Then 1.0 ml of the buffer solutions are added and the samples are sonified again.
Chemical composition of the solution/buffer which are used: • pH 4: 1 liter of deionized water was adjusted to pH 4 with 1N hydrochloric acid • pH 7.4: 90 g sodium chloride, 13.61 g potassium dihydrogene phosphate and 83.35 g 1 M sodium hydroxide solution were dissolved in 1 liter of deionized water. This solution was diluted with water at the rate of 1:10.
The test compound concentration is analysed by HPLC every hour during 24 hours at room temperature. The quantity of the test compound is determined by the peak areas.
HPLC method: Agilent 1100 with DAD (G1315B), binary pump (g1312A), autosampler (G1329A), column thermostat (G1330B), Column: Kromasil 100 C18/250 mm×4 mm/5 μm, Column temperature: 30° C., Eluent A: water+5 ml perchloric acid/1, Eluent B: acetonitrile, Gradient: 0-1.0 min 90% A, 10% B; 1.0-20.0 min 10% A, 90% B; 20.0-21.0 min 10% A, 90% B; 21.0-23.0 min 90% A, 10% B; 23.0-25.0 min 90% A, 10% B; Flow rate: 1.5 ml/min, Detection: 210 nm, Injection volume: 10 μl.

| Compound | % cleaved pH 4, 0 h [%] | % cleaved pH 4, 24 h [%] | % cleaved pH 7.4, 0 h [%] | % cleaved pH 7.4, 6 h [%] | % cleaved pH 7.4, 24 h [%] | cleavage kinetic (in words) |
| --- | --- | --- | --- | --- | --- | --- |
| NC(=O)[C@H](CSC1CC(=O)N(Cc2ccccc2)C1=O)NC(=O)[C@@H](N)CCNC(=O)Oc1ccc(C[C@H](N)C(=O)Nc2ccccc2)cc1 (stereo partly drawn) [Example 1C, O-{[(3S)-3-Amino-4-({(2R)-1-amino-3-[(1-benzyl-2,5-dioxopyrrolidin-3-yl)sulfanyl]-1-oxopropan-2-yl}amino)-4-oxobutyl]carbamoyl}-N-phenyl-L-tyrosinamide] | 0 | 1 | 0 | 7 | 21 |  |
| NC(=O)[C@H](CSC1CC(=O)N(Cc2ccccc2)C1=O)NC(=O)[C@@H](N)CCCNC(=O)Oc1ccc(C[C@H](N)C(=O)Nc2ccccc2)cc1 (stereo partly shown) [Example 3C] | 0 | 0 | 0 | 2 | 11 | cleaved slowly |
| NCCC[C@H](NC(=O)Oc1ccc(C[C@H](N)C(=O)Nc2ccccc2)cc1)C(=O)N[C@@H](CSC1CC(=O)N(Cc2ccccc2)C1=O)C(N)=O (stereo partly shown) [Example 4C] | 0 | 0 | 0 | 23 | 65 | cleaved quickly |
| NCC[C@H](NC(=O)Oc1ccc(C[C@H](N)C(=O)Nc2ccccc2)cc1)C(=O)N[C@@H](CSC1CC(=O)N(Cc2ccccc2)C1=O)C(N)=O (stereo partly shown) [Example 5C] | 0 | 0 | 0 | 75 | 100 | cleaved quickly |
| N[C@@H](CCNC(=O)Oc1ccc(C[C@H](N)C(=O)Nc2ccccc2)cc1)C(=O)NCCSC1CC(=O)N(Cc2ccccc2)C1=O (stereo partly shown) [Example 6C] | 0 | 0 | 0 | 6 | 20 |  |
| NC(=O)CNC(=O)[C@H](CSC1CC(=O)N(Cc2ccccc2)C1=O)NC(=O)[C@@H](N)CCNC(=O)Oc1ccc(C[C@H](N)C(=O)Nc2ccccc2)cc1 (stereo partly shown) [Example 7C] | 0 | 0 | 0 | 6 | 23 |  |
| NC(=O)[C@H](CSC1CC(=O)N(Cc2ccccc2)C1=O)NC(=O)CNC(=O)[C@@H](N)CCNC(=O)Oc1ccc(C[C@H](N)C(=O)Nc2ccccc2)cc1 (stereo partly shown) [Example 8C] | 0 | 0 | 0 | 6 | 23 |  |
| NC(=O)[C@H](CSC1CC(=O)N(Cc2ccccc2)C1=O)NC(=O)CCCCCNC(=O)[C@@H](N)CCNC(=O)Oc1ccc(C[C@H](N)C(=O)Nc2ccccc2)cc1 (stereo partly shown) [Example 9C] | 0 | 0 | 0 | 7 | 25 |  |
| N[C@@H](CCNC(=O)Oc1ccc(C[C@H](N)C(=O)Nc2ccccc2)cc1)C(=O)NCCOCCOCCOCCn1cc(-c2ccccc2)nn1 [Example 10Cb, O-{[(14S)-14-Amino-13-oxo-1-(4-phenyl-1H-1,2,3-triazol-1-yl)-3,6,9-trioxa-12-azahexadecan-16-yl]carbamoyl}-N-phenyl-L-tyrosinamide] | 0 | 0 | 0 | 4 | 14 | cleaved slowly |
| NC[C@H](NC(=O)Oc1ccc(C[C@H](N)C(=O)Nc2ccccc2)cc1)C(=O)N[C@@H](CSC1CC(=O)N(Cc2ccccc2)C1=O)C(N)=O (stereo partly shown) [Example 11C] | 0 | 19 | 0 | 100 | 100 | cleaved very quickly, even at pH4 |
| N[C@@H](Cc1ccc(OC(=O)NCC[C@H](N)C(=O)N[C@@H](CSC2CC(=O)N(Cc3ccccc3)C2=O)C(=O)Nc2ccccc2)cc1)C(=O)Nc1ccccc1 (stereo partly shown) [Example 12C] | 0 | 0 | 0 | 29 | 76 | cleaved quickly |
